We go through two compounds from patent publication US9499614B2, “Methods for modulating protein glycosylation profiles of recombinant protein therapeutics using monosaccharides and oligosaccharides” (AbbVie, Inc., priority 2013, dated 2016).

Values joined by “and” are separate entries in the source; they are usually repeats but may differ in a detail not shown here. Equal values may be shown once.

Type in all cases: cell-based, Chinese Hamster
The subject of one test is Cell Line 1. Put plainly: Shake flask fedbatch culture of Cell Line 1 (Antibody 1), cell culture performance (Example 2). To be noted: for Antibody 1 harvest titer: 1, 10, 30, 50, 70 mM vs control. As to the method: Two recombinant Chinese Hamster Ovary (CHO) cell lines expressing two different recombinant glycoproteins were evaluated in two different cultures vessels (shaker flasks and 3 L laboratory scale bioreactors). Cell Line 1 expressed Antibody 1, Cell Line 2 expressed Dual Variable Domain Immunoglobulin 1 (DVD 1) and Cell Line 3 expressed Antibody 2. Antibodies 1 and 2 are IgG1 proteins, and DVD 1 is an immunoglobulin with two variable domains as documented previously (Wu C. et al., (2007) Nat. Biotechnol 25(11):1290-1297). All cell lines were of CHO DUX-B11 origin based on a dhfr (dihydrofolate reductase) expression system. All cell lines were cultured in the same chemically defined basal media. Cell lines 1 and 2 were fed with the same chemically-defined feed media, but Cell Line 1 was fed media that was formulated at a 50% higher concentration. Each of the respective media were supplemented with either sucrose or tagatose to evaluate their potential impact on the resulting N-glycan oligosaccharide profile. All sugars were purchased from Sigma-Aldrich (St. Louis, Mo.). In preparation of the cultures, the cell lines were serially expanded through separate seed train inoculums to generate enough cells for inoculation. […] [table] Viable cell density (VCD) and cell viability values were measured through trypan blue exclusion via Cedex automated cell counters (Roche Applied Science, Indianapolis, Ind.), glucose and lactate values were measured with a ABL-805 (Radiometer Medical, Denmark) blood gas analyzer. Offline pH, dissolved oxygen (DO), and pCO2 measurements were performed with an ABL-805 (Radiometer Medical, Denmark) blood gas analyzer. Osmolality was measured on a Multi-Osmette 2430 osmometer (Precision Systems, Natick, Mass.). Antibody titers were measured from crude cell culture harvests on a Poros A™ (Life Technologies, Carlsbad, Calif.) affinity column using an Agilent (Santa Clara, Calif.) 1200 Series HPLC, or equivalent, operating with a low pH, step elution gradient with detection at 280 nm. Absolute concentrations were assigned with respect to reference standard calibration curves. Experimental results are expressed as mean±SD for those results generated from at least three independent cultures. Experimental results are expressed as the measured value for those results generated from less than three independent cultures. Results were evaluated for statistical significance through 2-sided t-tests, with a requirement of p<0.05 relative to the unsupplemented control conditions. Cell Line 1 was cultured in shake flasks in fedbatch mode after an abbreviated seed train. Sucrose and tagatose were supplemented into chemically-defined basal and feed media at concentrations of 1, 10, 30, 50, and 70 mM, and compared to unsupplemented control conditions. The viable cell density (VCD), viability, and harvest titer results are shown in FIGS. 13A-13C for the sucrose supplemented cultures and FIGS. 14A-14C for the tagatose supplemented cultures.

Test [1] concerns Cell Line 2. Nature of the test: Shake flask fed batch culture of Cell Line 2 (DVD 1), cell culture performance (Example 2). To be noted: for viable cell density over time: 1, 30 and 50 mM vs control. As to the method:
(§1) Two recombinant Chinese Hamster Ovary (CHO) cell lines expressing two different recombinant glycoproteins were evaluated in two different cultures vessels (shaker flasks and 3 L laboratory scale bioreactors). Cell Line 1 expressed Antibody 1, Cell Line 2 expressed Dual Variable Domain Immunoglobulin 1 (DVD 1) and Cell Line 3 expressed Antibody 2. Antibodies 1 and 2 are IgG1 proteins, and DVD 1 is an immunoglobulin with two variable domains as documented previously (Wu C. et al., (2007) Nat. Biotechnol 25(11):1290-1297). All cell lines were of CHO DUX-B11 origin based on a dhfr (dihydrofolate reductase) expression system. All cell lines were cultured in the same chemically defined basal media. Cell lines 1 and 2 were fed with the same chemically-defined feed media, but Cell Line 1 was fed media that was formulated at a 50% higher concentration. Each of the respective media were supplemented with either sucrose or tagatose to evaluate their potential impact on the resulting N-glycan oligosaccharide profile. All sugars were purchased from Sigma-Aldrich (St. Louis, Mo.). In preparation of the cultures, the cell lines were serially expanded through separate seed train inoculums to generate enough cells for inoculation.
Viable cell density (VCD) and cell viability values were measured through trypan blue exclusion via Cedex automated cell counters (Roche Applied Science, Indianapolis, Ind.), glucose and lactate values were measured with a ABL-805 (Radiometer Medical, Denmark) blood gas analyzer. Offline pH, dissolved oxygen (DO), and pCO2 measurements were performed with an ABL-805 (Radiometer Medical, Denmark) blood gas analyzer. Osmolality was measured on a Multi-Osmette 2430 osmometer (Precision Systems, Natick, Mass.).
Antibody titers were measured from crude cell culture harvests on a Poros A™ (Life Technologies, Carlsbad, Calif.) affinity column using an Agilent (Santa Clara, Calif.) 1200 Series HPLC, or equivalent, operating with a low pH, step elution gradient with detection at 280 nm. Absolute concentrations were assigned with respect to reference standard calibration curves.
(§2) Experimental results are expressed as mean±SD for those results generated from at least three independent cultures. Experimental results are expressed as the measured value for those results generated from less than three independent cultures. Results were evaluated for statistical significance through 2-sided t-tests, with a requirement of p<0.05 relative to the unsupplemented control conditions.
(§3) Cell Line 2 was cultured in shake flasks in fed batch mode after an abbreviated seed train. Sucrose and tagatose were supplemented into chemically-defined basal and feed media at concentrations of 1, 30, and 50 mM, and process performance results were compared to unsupplemented control conditions. The viable cell density (VCD), viability, and harvest titer results are shown in FIGS. 15A-15C for the sucrose supplemented cultures and FIGS. 16A-16C for the tagatose supplemented cultures.

Test [2] relates to Cell Line 2. Put plainly: N-glycan oligosaccharide profiling, Cell Line 2 (DVD 1) shake flasks (Example 2). The following applies: 50 mM supplement vs control. As to the method:
as §1
Purified antibodies subjected to additional analytical characterization were purified using MabSelect™ Protein A (GE Healthcare, Piscataway, N.J.) using a low pH, step elution gradient, followed by buffer exchange using Corning Lifesciences (Tewksbury, Mass.) Spin Concentrator X UF columns according to the manufacturers' recommended procedures.
Approximately 200 μg of Protein A purified samples from Cell Lines 1 and 2 were treated with N-glycanase at 37° C. overnight to remove the N-glycans from the protein. The protein was precipitated and the supernatant was taken for subsequent chemical derivatization of the reducing end of the released glycans with 2-aminobenzamide (2-AB) dye. Following the derivatization step, the excess label was removed using clean up cartridges and the samples were analyzed using normal phase HPLC with fluorescent detection. Mobile phase A was 100% acetonitrile and mobile phase B was 50 mM ammonium formate pH 4.4. The glycans were eluted from a polyamide column (Prozyme, Hayward, Calif.) using a shallow gradient. The labeled glycans were detected using a fluorescence detector with an excitation wavelength of 330 nm and an emission wavelength of 420 nm.
as §2, §3

Regarding `OC[C@H]1O[C@@](CO)(O[C@H]2O[C@H](CO)[C@@H](O)[C@H](O)[C@H]2O)[C@@H](O)[C@@H]1O` [sucrose], the “peak VCD” value in the test with Cell Line 1 (50 mM and 70 mM) was “reduction in peak VCD”. In the test with Cell Line 1 (50 mM vs control), the “increase in harvest titer” value was 2%. Moreover, the “Antibody 1 harvest titer” value with Cell Line 1 was “essentially indistinguishable from the control conditions”. The “viable cell density over time” value with Cell Line 1 (1, 10 and 30 mM) is “remained essentially the same”. The “cell viability after process day 10” value in the test on Cell Line 1 (10, 30, 50 and 70 mM) was “died slower than the control”. In addition, in the test with Cell Line 2 [1] (50 mM vs control), the harvest titer reduction worked out at 48% and the “reduction in peak VCD” value is “at most 2×10^6 cells/mL”. Moreover, in the test on Cell Line 2 [1], the “viable cell density over time” value is given as “remained approximately the same”. In the test on Cell Line 2 [2], the “cumulative increase in overall mannosylated N-glycans” value worked out at 8%; the “decrease in NA1F species” value is listed as 1%; the “decrease in NGA2F species” value is listed as 20%; the “increase in Man 5 species” value was 7% and 3%. Moreover, in the test with Cell Line 2 [2], the “increase in Man 6 species” value worked out at 1%, the “increase in NGA2F-GlcNAc species” value was found to be 8% and the “overall decrease in the fucosylation level” value turned out to be 13%.

Consider `O=C(CO)[C@@H](O)[C@@H](O)[C@H](O)CO` [tagatose], for which the “viable cell density over time” value in the test on Cell Line 1 (1 mM and 10 mM) was “remained similar or higher”. Moreover, in the test with Cell Line 1 (70 mM vs control), the “decrease in harvest titer” value was 9%. The “Antibody 1 harvest titer” value with Cell Line 1 is listed as “essentially indistinguishable”. Further, in the test on Cell Line 1 (30, 50 and 70 mM), the “cell viability after process day 10” value is on record as “died slower than the control” and the “peak VCD” value is given as “reduction in peak VCD”. For the same compound, in the test on Cell Line 2 [1] (1 mM vs control), the relative harvest titer entry is “did not adversely impact relative harvest titer”. For the same compound, the “viability after Day 8” value with Cell Line 2 [1] (30 mM and 50 mM vs control) is on record as “remained higher than the control”. The same compound gave a harvest titer decrease in the test on Cell Line 2 [1] (30 mM vs control) of 15%. Moreover, the harvest titer reduction in the test with Cell Line 2 [1] (50 mM vs control) is given as 38%. Moreover, in the test on Cell Line 2 [1], the “viable cell density over time” value is on record as “slightly higher compared to the control”. In the test on Cell Line 2 [2], the “cumulative increase in overall mannosylated N-glycans” value amounted to 4%, the “decrease in NA1F species” value was 1%, the “decrease in NGA2F species” value came out at 9% and the “increase in NGA2F-GlcNAc species” value worked out at 5%. Also, the “overall decrease in the fucosylation level” value in the test on Cell Line 2 [2] came out at 5%.
